{"source": "patent US20230398334A1", "about": "“COATED BALLOON CATHETER FOR TREATING ARTERIOVENOUS FISTULA AND METHODS OF USING SAME” (Alucent Biomedical, Inc., priority 2022, published 2023)", "system": "arteriovenous fistula (AVF)", "experiment": "Treatment of an AVF with the active agent (NVS treatment)", "format": "in vivo"}
{"smiles": "NCCOCCOCCNc1ccc2c3c(cccc13)C(=O)N(CCOCCOCCN1C(=O)c3cccc4c(NCCOCCOCCN)ccc(c34)C1=O)C2=O", "note": "[Compound of Formula (I), 2,2′-((ethane-1,2-diylbis(oxy))bis(ethane-2,1-diyl))bis(6-((2-(2-(2-aminoethoxy)ethoxy)ethyl)amino)-1H-benzo[de]isoquinoline-1,3(2H)-dione)]", "values": [{"measurement": "AVF open lumen area", "result": "significant increase"}, {"measurement": "area of neointimal hyperplasia", "result": "without significantly affecting"}]}
